From patent publication US5134137A, “Cephalosporin antibiotics” (The Upjohn Company, priority 1990, dated 1992)
Converted amounts (≈) assume the structure as drawn. Read-outs that look alike come from different tables or passages of the source.

Columns and labels:
[1] = tested on: Streptococcus dysgalactiae; assay: MIC, agar dilution, Streptococcus dysgalactiae; assay type: cell-based; details: Streptococcus dysgalactiae; strain UC251; read-out: MIC
Outline: (§1)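 Each organism receives an inoculum of approx. 10^3–10^4 CFU, taken from a 5% CO2 BHI subculture standardised to 0.5 McFarland and diluted 1:20. It is spotted on Mueller-Hinton agar containing the compound, then incubated for 16–18 h at 37 °C with CO2.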

Streptococcus suis = assay: MIC, agar dilution, Streptococcus suis; assay type: cell-based
Outline: as §1

Streptococcus uberis = assay: MIC, agar dilution, Streptococcus uberis; assay type: cell-based; details: Streptococcus uberis, read-out: MIC
Outline: as §1

P. hemolytica = assay: Systemic infection model in mice, ED50, P. hemolytica; assay type: in vivo; details: Mus musculus, sc, 144 h, 50% survival six days post infection, per day, read-out: ED50 (95% confidence limits)
Method: (§2) Experimental Infections and Antitiotic Treatment (for ED50 in mice tests).
(§3) Mice are infected and treated with the test antibiotic compound according to procedures described previously [Yancey, Jr., R. J. et at. supra].
(§4) The test antibiotic compound is administered subcutaneously immediately following infection, then at 24 hours and 48 hours post infection. The medium effective dose (ED50) number is determined for all infections. The ED50 value is defined as the calculated concentration of the test antibiotic compound in mg. of compound per kilogram of mouse body weight per day at which 50% of the animals survived six days post infection.

Salmonella typhimurium = assay: Systemic infection model in mice, ED50, Salmonella typhimurium; assay type: in vivo; details: Salmonella enterica, 144 h, 50% survival six days post infection, per day, read-out: ED50 (95% confidence limits)
Method: as §2, §3, §4

[2] = Stability of the compound; assay type: physicochemical
[3] = Serum half life / duration of antibiotic action
Micrococcus luteus = assay: MIC, agar dilution, Micrococcus luteus; assay type: cell-based; details: Micrococcus luteus; strain UC130; read-out: MIC
Outline: as §1

[4] = Streptococcus suis, strain 538-2, read-out: MIC
[5] = strain UC6531, subcutaneous, 0, 24, 48 hours post infection
[6] = strain UC6532, lactamase producing, subcutaneous, 0, 24, 48 hours post infection
[7] = TYPHIMURIUM / UC6162, sc, strain UC6162, subcutaneous, 0, 24, 48 hours post infection
[8] = TYPHIMURIUM / UC6164, sc, strain UC6164, lactamase producing, subcutaneous, 0, 24, 48 hours post infection

| MIC [1] | MIC (Streptococcus suis; [4]) | MIC (Streptococcus suis; strain 650-2) | MIC (Streptococcus uberis; strain UC3946) | MIC (Streptococcus uberis; strain UC6159) | stability in alkaline solution ([2]; alkaline solution) | stability in the dry state ([2]; dry state, white powder) | serum half life ([3]; inferred from results against Salmonella typhimurium) | MIC (Micrococcus luteus) | Structure (SMILES) | ED50 (P. hemolytica; [5]) | ED50 (P. hemolytica; [6]) | ED50 (Salmonella typhimurium; [7]) | ED50 (Salmonella typhimurium; [8]) | stability in strongly acidic media ([2]; strongly acidic media) | duration of antibiotic action ([3]; compared with ceftiofur) |
| --- | --- | --- | --- | --- | --- | --- | --- | --- | --- | --- | --- | --- | --- | --- | --- |
| ≤ 0.06 µg/mL | ≤ 0.06 µg/mL | ≤ 0.06 µg/mL | 0.25 µg/mL | 32 µg/mL | decomposes quickly | stable in the dry state | longer serum half life |  | CO/N=C(\C(=O)N[C@@H]1C(=O)N2C(C(=O)O)=C(CS)CS[C@H]12)c1csc(N)n1 [Formula III compound, 3-mercaptomethyl-7β-[2-(2-amino-1,3-thiazol-4-yl)-(Z)-2-(methoxyimino)acetamido]ceph-3-em-4-carboxylic acid] | 0.8 mg/kg | 0.8 mg/kg | 0.3 mg/kg | 0.5 mg/kg | converted to the 3,4-thio-lactone derivative | biologically longer acting as an antibiotic than ceftiofur |
| ≤ 0.06 µg/mL | ≤ 0.06 µg/mL | ≤ 0.06 µg/mL | ≤ 0.06 µg/mL | 0.25 µg/mL (≈ 0.477 µM) |  |  |  | 0.25 µg/mL (≈ 0.477 µM) | CO/N=C(\C(=O)N[C@@H]1C(=O)N2C(C(=O)O)=C(CSC(=O)c3ccco3)CS[C@H]12)c1csc(N)n1 [ceftiofur, 7-[2-(amino-1,3-thiazol-4-yl)-2-(methoxyimino)acetamido]-3-[(fur-2-ylcarbonyl)thiomethyl]-3-cephem-4-carboxylic acid, reference compound] | 0.8 mg/kg | 0.9 mg/kg | 0.4 mg/kg | 0.5 mg/kg |  |  |

| Structure (SMILES) | MIC [1] | MIC (Streptococcus suis; [4]) | MIC (Streptococcus suis; strain 650-2) | MIC (Streptococcus uberis; strain UC3946) | MIC (Streptococcus uberis; strain UC6159) | stability in alkaline solution ([2]; alkaline solution) | stability in the dry state ([2]; dry state, white powder) | serum half life ([3]; inferred from results against Salmonella typhimurium) | MIC (Micrococcus luteus) | ED50 (P. hemolytica; [5]) | ED50 (P. hemolytica; [6]) | ED50 (Salmonella typhimurium; [7]) | ED50 (Salmonella typhimurium; [8]) | stability in strongly acidic media ([2]; strongly acidic media) | duration of antibiotic action ([3]; compared with ceftiofur) |
| --- | --- | --- | --- | --- | --- | --- | --- | --- | --- | --- | --- | --- | --- | --- | --- |
| CO/N=C(\C(=O)N[C@@H]1C(=O)N2C(C(=O)O)=C(CO)CS[C@H]12)c1csc(N)n1 [desacetyl cefotoxime, 7-[2-(2-amino-1,3-thiazol-4-yl)-(syn)-2-methoxyiminoacetamido]-3-hydroxymethylceph-3-em-4-carboxylic acid, reference compound] | ≤ 0.06 µg/mL | ≤ 0.06 µg/mL | ≤ 0.06 µg/mL | ≤ 0.06 µg/mL | 16 µg/mL (≈ 38.7 µM) |  |  |  |  | 0.3 mg/kg | 0.6 mg/kg | 0.8 mg/kg | 1 mg/kg |  |  |
